Data set [1] concerns adipocytes. The data set can be described thus: TNF induced insulin resistance in adipocytes. Format: cell-based. The following applies: chronic exposure to low levels of TNF. The source says:
Additionally, adipocytes were made insulin resistant by chronic exposure to low levels of tumor necrosis factor (TNF). […] This latter patient population is estimated at 10 million in the US alone.

In data set [2] the test system is apoE -/- mice fed a high fat and high cholesterol (HFHC) diet. The data set can be described thus: aortic histopathology and ultrasound imaging, atherosclerosis in apoE -/- mice fed HFHC diet. The data set is classed as in vivo. To be noted: FIG. 2B.
Data set [3] deals with Apolipoprotein E-/- mice. The data set is described as follows: Example 6: ox-LDL, GalT-V and amyloid-β (ELISA, Western) in ApoE-/- mice fed HFHC diet. Format: in vivo. On the procedure:
Testing of the impact of D-PDMP in a mouse AD model and quantification of biomarkers in such studies was performed in the following manner. […] These mice were fed either a normal diet (control) or a high-fat high-cholesterol (HFHC) diet. While a subset of the mice fed the high-fat diet was retained as a placebo group, others were treated with 5 mg/kg (mpk) or 10 mpk of the D-PDMP drug. After euthanizing these animals, tissue and blood samples were stored for further biochemical analysis. For the quantification of the biomarkers, […] (ELISA) was used. For the measurement of ox-LDL, mouse serum was coated onto the bottom of a well. […] A secondary antibody was administered to that attached specifically to the primary antibody. This secondary antibody presented an attached reporter, allowing amounts of ox-LDL could be quantified. A substrate was bound to the reporter and fluoresced. […] ELISA was also employed for quantifying levels of GalT-V and amyloid-β, using different target-specific antibodies.

Data set [4] concerns cultured human arterial cell monolayer. The data set can be described thus: in vitro model of wounding in cultured arterial cell monolayer. The data set is classed as cell-based.
For data set [5] the following is noted: in vivo.
The conditions of data set [6]: in vivo; cited from earlier work.
The conditions of data set [7]: native, not encapsulated.
[8] abbreviates: 5 mpk and 10 mpk by injection, not biopolymer-encapsulated.

Each structure is given as a SMILES string. Entries after “also recorded” stand apart in the source; their conditions may differ.

As for `CCCCCCCCCC(=O)N[C@H](CN1CCOCC1)[C@H](O)c1ccccc1.Cl` [D-PDMP, D-threo-1-phenyl-2-decanoylamino-3-morpholino-1-propanol], the “TNF induced impairment in insulin signaling” value in data set [1] is recorded as “reversed”. Further, the “returning aortic intima-media thickness of the ascending aorta to control levels” value in data set [2] is listed as “equally efficacious”. In data set [3] (setting [8]), the “levels of GalT-V” value is reported as “dose-dependently decreased; also recorded: decreased levels” and the “levels of ox-LDL” value is “dose-dependently decreased; also recorded: decreased levels”. In addition, the amyloid-β levels entry in data set [3] (5 mpk and 10 mpk by injection, not biopolymer-encapsulated, brain tissue) is reported as “dose-dependently decreased; also recorded: reduction”. The “levels of atherosclerosis and Alzheimer's disease biomarkers” value in data set [3] (ApoE -/- model mice) is “markedly reduced”. Besides, the wound healing entry in data set [4] is “facilitated healing”. The toxicity entry in data set [5] is recorded as “no toxicity”. Moreover, the half-life entry in data set [6] is on record as “approximately 52 minutes”. Besides, the “residence time in the body of the mice” value in data set [7] is recorded as “about an hour”.
